One data set addresses T1, human B1 receptor (Homo sapiens, UniProt P46663).
T1 sequence (P46663 1-353): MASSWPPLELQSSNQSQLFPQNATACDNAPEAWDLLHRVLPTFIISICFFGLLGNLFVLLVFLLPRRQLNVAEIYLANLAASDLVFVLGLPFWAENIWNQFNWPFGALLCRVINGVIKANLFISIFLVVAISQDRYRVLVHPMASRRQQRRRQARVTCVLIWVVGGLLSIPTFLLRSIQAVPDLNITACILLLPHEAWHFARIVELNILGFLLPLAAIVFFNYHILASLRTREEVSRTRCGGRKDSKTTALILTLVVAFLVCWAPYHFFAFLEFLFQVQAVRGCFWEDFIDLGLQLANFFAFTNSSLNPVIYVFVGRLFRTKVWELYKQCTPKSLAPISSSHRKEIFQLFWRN
Briefly: cell-based. The conditions noted are these: Human umbilical vein B1 receptor pA2, vs desArg9BK, HOE140 400 nmol/L present. The source says:
(§1) Tissues were taken from New Zealand white rabbits (1.5–2.5 kg) and Dunken Hartley guinea pigs (250–350 g) of either sex, killed by stunning and exsanguination. Umbilical cords were taken from healthy women 22–40 years old after spontaneous delivery at term. The rabbit jugular vein (RbJV), the guinea pig ileum (GPI), two preparations containing B2 receptors, the rabbit aorta (RbA) (B1 receptor) and the human umbilical vein (HUV), a mixed preparation containing both B1 and B2 receptors^10, were used. Helical strips of RbJV treated with 1 μmol/L of captopril to avoid peptide degradation by the angiotensin-converting enzyme (ACE), alias kininase II were prepared according to Gaudreau et al.^11 Helical strips of RbA devoid of endothelium were prepared according to Furchgott and Bhadrakom^12. Longitudinal segments of GPI were prepared with the procedure described by Rang^13. Helical strips of HUV were prepared according to Gobeil et al.^10. The tissues were suspended in 10-ml organ baths containing warm (37EC), oxygenated (95% O2–5% CO2) Krebs solution of the following composition in mmol/L; NaCl: 118.1; KCl: 4.7; CaCl26H2O: 2.5; KH2PO4: 1.2; MgSO47H2O: 1.18; NaHCO3: 25.0 and D-Glucose: 5.5. The RbA and the HUV were stretched with an initial tension of 2 g, whereas the RbJV and the GPI were loaded with 0.5 g. Changes of tension produced by the various agents were measured with Grass isometric transducers (model FT 03C, Grass Instrument Co., Quincy, Mass.). […] Before testing the drugs, the tissues were allowed to equilibrate for 60–120 min during which time the tissues were repeatedly washed and the tension readjusted every 15 min.
(§2) At the beginning of each experiment, a submaximal dose of bradykinin (BK) (9 nmol/L), was applied repeatedly on the RbJV, the GPI or the HUV to ensure that tissues responded with stable contractions. […] A similar protocol was used for the HUV.
(§3) Repeated applications of a singl and double concentration of BK (on RbJV, GPI and HUV) and of desArg^9BK (RbA and HUV) were made in the absence and in presence of the various peptides to evaluate their apparent affinities as antagonists, in terms of pA2 (-log10 of the molar concentration of antagonist that reduces the effect of a double concentration of agonist to that of a single one)^14. The antagonists were applied 10 min before measuring the myotropic effects of either BK (the B2 receptor agonist) or desArg^9BK (the B1 receptor agonist). […] All kinin antagonists were initially applied to tissues at concentration of 10 μg/mL to measure their potential agonistic activities (α^E) in comparison with BK (in the B2 receptor preparations) or desArg^9BK (in the B1 receptor preparations).

The target in data set [1] is T2, B2 receptor (Cavia porcellus, UniProt O70526).
T2 sequence (O70526 1-372): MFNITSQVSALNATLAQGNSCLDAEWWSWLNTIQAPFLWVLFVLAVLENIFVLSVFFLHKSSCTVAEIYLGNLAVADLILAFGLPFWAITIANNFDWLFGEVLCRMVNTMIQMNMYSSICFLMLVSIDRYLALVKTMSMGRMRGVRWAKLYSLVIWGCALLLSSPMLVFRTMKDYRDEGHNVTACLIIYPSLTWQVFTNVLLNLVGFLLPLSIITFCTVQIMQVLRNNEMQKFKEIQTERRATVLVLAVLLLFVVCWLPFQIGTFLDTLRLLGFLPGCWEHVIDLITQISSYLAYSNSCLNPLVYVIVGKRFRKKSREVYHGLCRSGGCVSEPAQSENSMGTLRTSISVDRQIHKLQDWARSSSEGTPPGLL
Briefly: cell-based. The conditions noted are these: for G.P.I. pA2: vs BK, Inactive = no detectable antagonistic effect at ≦ 10 μg/ml, F.ag. full agonist, P.ag. partial agonist.
Source text: as §1, §2, §3

The test system of data set [2] is T3, angiotensin-converting enzyme (ACE).
T3 construct: purified angiotensin-converting enzyme (ACE) from rabbit lungs; purchased Sigma, St-Louis, Mo; host or cells: purified from rabbit lungs
Briefly: Metabolic degradation by purified angiotensin-converting enzyme, HPLC analysis. Type of data set: in vitro ADME, rabbit. Particulars: rabbit, isolated enzyme ace, pH 7.5. The method, then: The metabolic stability of various kinin-related peptides was evaluated by incubating the peptide in the presence of purified angiotensin-converting enzyme (ACE) from rabbit lungs (purchased from Sigma, St-Louis, Mo.) dissolved in phosphate buffered saline (PBS) (50 mmol/L, pH 7.5 containing 300 mmoL/L NaCl); the final concentration of enzyme was 45 μg/mL. The experimental protocol for the measurement of ACE activity has been described elsewhere^15,16. Briefly, 200 μmol/L of peptides (40 μL) were placed in a PBS buffer and incubated for 5 min at 37EC before adding 8.5 μL of ACE (total volume of the reaction medium; 190 μL). Samples were withdrawn at 30 min intervals, immersed in boiling water for 5 min, then cooled on ice and centrifuged (5 min) before proceeding to analysis of peptides by high pressure liquid chromatography (HPLC). Results of ACE metabolism are expressed in percent of kinin degradation following the incubation (30 min) of kinin substrates with the enzyme.
Pure peptides and metabolic products were analysed by reverse-phas HPLC on a C18 μBondapak column (4.6 mm×25 cm) (Waters) of 10-μm particle size. The peptides and their fragments were eluted at the rate of 2.0 mL/min. with a linear gradient ranging from 5 to 65% of acetonitrile/TFA 0.05%/water over 20 min. at room temperature. The elution positions of these peptides were determined by following the absorbance at 214 nm. For each assay, 50 μL of the reaction medium (treated or not with ACE) were extracted and injected into the column. Concentrations of the peaks products, different from the peaks of the peptide substrate, were estimated using a computer software program (Baseline 810; Waters) that controlled also all the chromatography operations. Isolated metabolites and substrates were collected and identified by Electrospray mass spectrometry (positive mode).

The target of data set [3] is T4, B2 receptor (Oryctolagus cuniculus, UniProt Q28642).
T4 sequence (Q28642 1-367): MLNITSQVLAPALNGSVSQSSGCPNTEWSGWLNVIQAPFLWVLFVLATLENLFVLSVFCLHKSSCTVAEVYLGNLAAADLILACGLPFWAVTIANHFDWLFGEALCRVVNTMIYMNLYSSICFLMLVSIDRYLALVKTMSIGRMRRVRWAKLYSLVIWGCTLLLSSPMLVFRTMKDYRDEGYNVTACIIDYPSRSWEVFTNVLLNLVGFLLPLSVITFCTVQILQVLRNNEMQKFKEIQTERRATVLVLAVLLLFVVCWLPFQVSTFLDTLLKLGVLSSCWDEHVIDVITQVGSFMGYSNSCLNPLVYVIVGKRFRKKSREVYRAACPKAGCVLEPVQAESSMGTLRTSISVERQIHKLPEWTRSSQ
The conditions noted are these: vs BK; captopril 1 μmol/L; Inactive = no detectable antagonistic effect at ≦ 10 μg/ml.

The target in another data set is T5, B1 receptor (Oryctolagus cuniculus, UniProt P48748).
T5 sequence (P48748 1-352): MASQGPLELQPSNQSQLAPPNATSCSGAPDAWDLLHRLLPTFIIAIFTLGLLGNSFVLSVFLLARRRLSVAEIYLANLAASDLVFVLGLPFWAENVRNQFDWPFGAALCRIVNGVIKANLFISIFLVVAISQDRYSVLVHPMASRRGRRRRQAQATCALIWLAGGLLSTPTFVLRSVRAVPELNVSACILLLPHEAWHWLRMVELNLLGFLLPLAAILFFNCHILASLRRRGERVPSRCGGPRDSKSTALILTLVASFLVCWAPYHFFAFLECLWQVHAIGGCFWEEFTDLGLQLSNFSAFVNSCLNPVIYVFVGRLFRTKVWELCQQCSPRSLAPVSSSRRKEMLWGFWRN
Briefly: cell-based. Particulars: Rb.A. pA2, apparent affinity as antagonist vs desArg9BK; antagonist applied 10 min before; Inactive = no detectable antagonistic effect at ≦ 10 μg/ml.
Source text: as §1, §2, §3

The target in data set [4] is T4, B2 receptor. Briefly: cell-based.
Source text: as §1, §2, §3

This is an account of results in patent US7041785B1, “B1-bradykinin receptor antagonists and use thereof” (Université de Sherbrooke, priority 1996, dated 2006).

Each structure is given as a SMILES string. Non-standard residues stand in square brackets, D forms with d. Residues, ends and D or L forms follow the SMILES beside them. Oic = O=C(O)[C@@H]1C[C@@H]2CCCC[C@@H]2N1; d2Nal = N[C@H](Cc1ccc2ccccc2c1)C(=O)O; Hyp = O=C(O)[C@@H]1C[C@@H](O)CN1; dTic = O=C(O)[C@H]1Cc2ccccc2CN1; 2Thi = N[C@@H](Cc1cccs1)C(=O)O

Consider `CC[C@H](C)[C@H](NC(=O)[C@@H](Cc1ccc2ccccc2c1)NC(=O)[C@H](CO)NC(=O)[C@H](Cc1ccccc1)NC(=O)CNC(=O)[C@@H]1CCCN1C(=O)[C@@H]1CCCN1C(=O)[C@H](CCCN=C(N)N)NC(=O)[C@H](CCCCN)NC(C)=O)C(=O)O` [AcLys(D-βNal^7, Ile^8)desArg^9BK] (Ac-KRPPGFS[d2Nal]I-OH), for which the Kb on human B1 receptor was 0.00324 µM.
Consider `CC(C)C[C@H](NC(=O)[C@@H]1CCCN1C(=O)[C@H](CO)NC(=O)[C@H](Cc1ccccc1)NC(=O)CNC(=O)[C@@H]1CCCN1C(=O)[C@@H]1CCCN1C(=O)[C@H](CCCNC(=N)N)NC(=O)[C@@H](N)CCCCN)C(=O)O` [Compound 2, Lys(Leu^8)desArg^9BK, reference compound], for which the “G.P.I. pA2” value on B2 receptor [1] was “Inactive”. This compound also displayed a metabolised at 0.5 h, 42.1 μmol/L in data set [2] of 74 ± 2%. For the same compound, the “Rb.J.V. pA2” value at B2 receptor [3] is given as “Inactive”.
As to `N=C(N)NCCC[C@@H](N)C(=O)N[C@@H](CCCNC(=N)N)C(=O)N1CCC[C@H]1C(=O)N1C[C@H](O)C[C@H]1C(=O)NCC(=O)N[C@@H](Cc1ccccc1)C(=O)N[C@@H](CO)C(=O)N[C@H](Cc1ccccc1)C(=O)N[C@@H](Cc1ccccc1)C(=O)O` [Compound 6, D-Arg(Hyp^3, D-Phe^7)desArg^9BK] (H-[dR]RP[Hyp]GFS[dF]F-OH; N-terminus and C-terminus assumed), the results for the Kb on B1 receptor, on B2 receptor [1] and at B2 receptor [4] were 0.363 µM, over 8.91 µM and 2.34 µM, respectively.
For the compound `CC(C)C[C@H](NC(=O)[C@@H](Cc1ccccc1)NC(=O)[C@H](CO)NC(=O)[C@H](Cc1ccccc1)NC(=O)CNC(=O)[C@@H]1C[C@@H](O)CN1C(=O)[C@@H]1CCCN1C(=O)[C@H](CCCNC(=N)N)NC(=O)[C@H](N)CCCNC(=N)N)C(=O)O` [Compound 7, D-Arg(Hyp^3, D-Phe^7, Leu^8)desArg^9BK] (H-[dR]RP[Hyp]GFS[dF]L-OH; N-terminus and C-terminus assumed), the Kb on B1 receptor is 0.275 µM; at B2 receptor [4], 2.09 µM. For the same compound, the “G.P.I. pA2” value at B2 receptor [1] is on record as “Inactive”.
With `CC(C)C[C@H](NC(=O)[C@H]1Cc2ccccc2CN1C(=O)[C@H](CO)NC(=O)[C@H](Cc1ccccc1)NC(=O)CNC(=O)[C@@H]1CCCN1C(=O)[C@@H]1CCCN1C(=O)[C@H](CCCNC(=N)N)NC(=O)[C@@H](N)CCCCN)C(=O)O` [Compound 10, Lys(D-Tic^7, Leu^8)desArg^9BK] (H-KRPPGFS[dTic]L-OH; N-terminus and C-terminus assumed), the figures for the Kb at B1 receptor and on B2 receptor [4] were 0.316 µM and over 6.31 µM, respectively.
In the case of `C[C@H](NC(=O)[C@H]1Cc2ccccc2CN1C(=O)[C@H](CO)NC(=O)[C@H](Cc1ccccc1)NC(=O)CNC(=O)[C@@H]1CCCN1C(=O)[C@@H]1CCCN1C(=O)[C@H](CCCNC(=N)N)NC(=O)[C@H](N)CCCNC(=N)N)C(=O)O` [Compound 15, D-Arg(D-Tic^7, Ala^8)desArg^9BK] (H-[dR]RPPGFS[dTic]A-OH; N-terminus and C-terminus assumed), the Kb on B1 receptor is over 9.55 µM. For the same compound, the metabolised at 0.5 h in data set [2] is 21 ± 1%. Further, the “Rb.J.V. pA2” value at B2 receptor [3] is reported as “Inactive”.
In the case of `N=C(N)NCCC[C@@H](N)C(=O)N[C@@H](CCCNC(=N)N)C(=O)N1CCC[C@H]1C(=O)N1C[C@H](O)C[C@H]1C(=O)NCC(=O)N[C@@H](Cc1ccccc1)C(=O)N[C@@H](CO)C(=O)N1Cc2ccccc2C[C@@H]1C(=O)N[C@@H](Cc1ccccc1)C(=O)O` [Compound 16, D-Arg(Hyp^3, D-Tic^7)desArg^9BK] (H-[dR]RP[Hyp]GFS[dTic]F-OH; N-terminus and C-terminus assumed), the Kb at B1 receptor was 0.186 µM; at B2 receptor [4], over 2.19 µM. In data set [2], this compound showed a metabolised at 0.5 h of 0%.
In the case of `N=C(N)NCCC[C@H](N)C(=O)N1CCC[C@H]1C(=O)N1C[C@H](O)C[C@H]1C(=O)NCC(=O)N[C@@H](Cc1cccs1)C(=O)N[C@@H](CO)C(=O)N1Cc2ccccc2C[C@@H]1C(=O)N1[C@H](C(=O)O)C[C@@H]2CCCC[C@@H]21` [Compound 32, (Hyp^3, Thi^5, D-Tic^7, Oic^8)desArg^9BK, reference compound] (H-RP[Hyp]G[2Thi]S[dTic][Oic]-OH; N-terminus and C-terminus assumed), the Kb on B1 receptor was 0.479 µM; on B2 receptor [1], over 7.59 µM; on B2 receptor [4] it was 0.447 µM. In addition, the metabolised at 0.5 h in data set [2] was found to be 0%.
